Data as given in patent US8741944B2, “Anti-infective agents against intracellular pathogens” (priority 2007, dated 2014).
“And” between values parts separate entries of the source, which are not always exact repeats. Equal entries are not always repeated. Where two headings read alike, the source gives them in different places.

How the values were obtained:
SK-MEL-28 (Melanoma) = assay: NCI DTP tumor cell line screen (SRB), SK-MEL-28
Method: (§1) For a typical screening experiment, cells are inoculated into 96 well microtiter plates in 100 μL at plating densities ranging from 5,000 to 40,000 cells/well depending on the doubling time of individual cell lines. After cell inoculation, the microtiter plates are incubated at 37° C., 5% CO2, 95% air and 100% relative humidity for 24 h prior to addition of experimental drugs.
(§2) After 24 h, two plates of each cell line are fixed in situ with TCA, to represent a measurement of the cell population for each cell line at the time of drug addition (Tz). Experimental drugs are solubilized in dimethyl sulfoxide at 400-fold the desired final maximum test concentration and stored frozen prior to use. At the time of drug addition, an aliquot of frozen concentrate is thawed and diluted to twice the desired final maximum test concentration with complete medium containing 50 μg/ml gentamicin. Additional four, 10-fold or ½ log serial dilutions are made to provide a total of five drug concentrations plus control. Aliquots of 100 μl of these different drug dilutions are added to the appropriate microtiter wells already containing 100 μl of medium, resulting in the required final drug concentrations.
(§3) Following drug addition, the plates are incubated for an additional 48 h at 37° C., 5% CO2, 95% air, and 100% relative humidity. For adherent cells, the assay is terminated by the addition of cold TCA. Cells are fixed in situ by the gentle addition of 50 μl of cold 50% (w/v) TCA (final concentration, 10% TCA) and incubated for 60 minutes at 4° C. The supernatant is discarded, and the plates are washed five times with tap water and air dried. Sulforhodamine B (SRB) solution (1001) at 0.4% (w/v) in 1% acetic acid is added to each well, and plates are incubated for 10 minutes at room temperature. After staining, unbound dye is removed by washing five times with 1% acetic acid and the plates are air dried. Bound stain is subsequently solubilized with 10 mM trizma base, and the absorbance is read on an automated plate reader at a wavelength of 515 nm. For suspension cells, the methodology is the same except that the assay is terminated by fixing settled cells at the bottom of the wells by gently adding 50 μl of 80% TCA (final concentration, 16% TCA). Using the seven absorbance measurements [time zero, (Tz), control growth, (C), and test growth in the presence of drug at the five concentration levels (Ti)], the percentage growth is calculated at each of the drug concentrations levels. Percentage growth inhibition is calculated as: [(Ti−Tz)/(C−Tz)]×100 for concentrations for which Ti>/=Tz [(Ti−Tz)/Tz]×100 for concentrations for which Ti<Tz
(§4) Three dose response parameters are calculated for each experimental agent. […] The drug concentration resulting in total growth inhibition (TGI) is calculated from Ti=Tz. […] Values are calculated for each of these three parameters if the level of activity is reached; however, if the effect is not reached or is exceeded, the value for that parameter is expressed as greater or less than the maximum or minimum concentration tested.

786-0 (Renal Cancer) = assay: NCI DTP tumor cell line screen (SRB), 786-0
Method: as §1, §2, §3, §4

UACC-62 (Melanoma) = assay: NCI DTP tumor cell line screen (SRB), UACC-62
Method: as §1, §2, §3, §4

[1] = system: NCI-H23 (Non-Small Cell Lung Cancer)
Method: as §1, §2, §3, §4

TK-10 (Renal Cancer) = assay: NCI DTP tumor cell line screen (SRB), TK-10
Method: as §1, §2, §3, §4

RXF 393 (Renal Cancer) = assay: NCI DTP tumor cell line screen (SRB), RXF 393
Method: as §1, §2, §3, §4

OVCAR-8 (Ovarian Cancer) = assay: NCI DTP tumor cell line screen (SRB), OVCAR-8
Method: as §1, §2, §3, §4

SK-OV-3 (Ovarian Cancer) = assay: NCI DTP tumor cell line screen (SRB), SK-OV-3
Method: as §1, §2, §3, §4

[2] = system: NCI-H460 (Non-Small Cell Lung Cancer)
Method: as §1, §2, §3, §4

HCT-116 (Colon Cancer) = assay: NCI DTP tumor cell line screen (SRB), HCT-116
Method: as §1, §2, §3, §4

HT29 (Colon Cancer) = assay: NCI DTP tumor cell line screen (SRB), HT29
Method: as §1, §2, §3, §4

[3] = system: HOP-92 (Non-Small Cell Lung Cancer); assay: NCI DTP tumor cell line screen (SRB), HOP-92
Method: as §1, §2, §3, §4

M14 (Melanoma) = assay: NCI DTP tumor cell line screen (SRB), M14
Method: as §1, §2, §3, §4

MCF7 (Breast Cancer) = assay: NCI DTP tumor cell line screen (SRB), MCF7
Method: as §1, §2, §3, §4

[4] = system: sixty human tumor cell lines; assay: NCI DTP sixty human tumor cell line screen (SRB), means over the panel
HCT-15 (Colon Cancer) = assay: NCI DTP tumor cell line screen (SRB), HCT-15
Method: as §1, §2, §3, §4

4-[5-(2-Phenanthrenyl)-3-(trifluoromethyl)-1H-pyrazol-1-yl]-phenyl -guanidine [Compound 71]
GI50 (SK-MEL-28 (Melanoma)): 1560 nM
TGI (SK-MEL-28 (Melanoma)): 2.89E−06
Percent Growth (SK-MEL-28 (Melanoma); Log10 Concentration −4.0): −53%
Percent Growth (SK-MEL-28 (Melanoma); Log10 Concentration −5.0): −100%
Percent Growth (SK-MEL-28 (Melanoma); Log10 Concentration −7.0): 90%
GI50 (786-0 (Renal Cancer)): 1490 nM
TGI (786-0 (Renal Cancer)): 2.91E−06
Percent Growth (786-0 (Renal Cancer); Log10 Concentration −4.0): −30%
Percent Growth (786-0 (Renal Cancer); Log10 Concentration −6.0): 80%
GI50 (UACC-62 (Melanoma)): 1440 nM
TGI (UACC-62 (Melanoma)): 2.74E−06
Percent Growth (UACC-62 (Melanoma); Log10 Concentration −4.0): −60%
Percent Growth (UACC-62 (Melanoma); Log10 Concentration −5.0): −100%
Percent Growth (UACC-62 (Melanoma); Log10 Concentration −6.0): 78%
Percent Growth (UACC-62 (Melanoma); Log10 Concentration −7.0): 83%
GI50 [1]: 1790 nM
TGI [1]: 3.18E−06
Percent Growth ([1]; Log10 Concentration −4.0): −67%
Percent Growth ([1]; Log10 Concentration −5.0): −100%
Percent Growth ([1]; Log10 Concentration −6.0): 101%
GI50 (TK-10 (Renal Cancer)): 1320 nM
TGI (TK-10 (Renal Cancer)): 2.59E−06
Percent Growth (TK-10 (Renal Cancer); Log10 Concentration −4.0): −64%
Percent Growth (TK-10 (Renal Cancer); Log10 Concentration −5.0): −100%
Percent Growth (TK-10 (Renal Cancer); Log10 Concentration −6.0): 71%
Percent Growth (TK-10 (Renal Cancer); Log10 Concentration −7.0): 90%
Percent Growth (TK-10 (Renal Cancer); Log10 Concentration −8.0): 78%
TGI (RXF 393 (Renal Cancer); RXF 383): 2.91E−06
Percent Growth (RXF 393 (Renal Cancer); RXF 383, Log10 Concentration −4.0): −4%
Percent Growth (RXF 393 (Renal Cancer); RXF 383, Log10 Concentration −6.0): 53%
Percent Growth (RXF 393 (Renal Cancer); RXF 383, Log10 Concentration −7.0): 53%
Percent Growth (RXF 393 (Renal Cancer); RXF 383, Log10 Concentration −8.0): 42%
GI50 (OVCAR-8 (Ovarian Cancer); OVCAR 8): 1690 nM
TGI (OVCAR-8 (Ovarian Cancer); OVCAR 8): 3.05E−06
Percent Growth (OVCAR-8 (Ovarian Cancer); OVCAR 8, Log10 Concentration −4.0): −69%
Percent Growth (OVCAR-8 (Ovarian Cancer); OVCAR 8, Log10 Concentration −5.0): −100%
Percent Growth (OVCAR-8 (Ovarian Cancer); OVCAR 8, Log10 Concentration −6.0): 94%
Percent Growth (OVCAR-8 (Ovarian Cancer); OVCAR 8, Log10 Concentration −8.0): 92%
GI50 (SK-OV-3 (Ovarian Cancer)): 1430 nM
TGI (SK-OV-3 (Ovarian Cancer)): 2.94E−06
Percent Growth (SK-OV-3 (Ovarian Cancer); Log10 Concentration −4.0): −30%
Percent Growth (SK-OV-3 (Ovarian Cancer); Log10 Concentration −5.0): −85%
Percent Growth (SK-OV-3 (Ovarian Cancer); Log10 Concentration −6.0): 75%
Percent Growth (SK-OV-3 (Ovarian Cancer); Log10 Concentration −7.0): 91%
GI50 [2]: 1640 nM
TGI [2]: 3.04E−06
Percent Growth ([2]; Log10 Concentration −4.0): −20%
Percent Growth ([2]; Log10 Concentration −5.0): −97%
Percent Growth ([2]; Log10 Concentration −6.0): 90%
Percent Growth ([2]; Log10 Concentration −7.0): 91%
Percent Growth ([2]; Log10 Concentration −8.0): 91%
GI50 (HCT-116 (Colon Cancer)): 1290 nM
TGI (HCT-116 (Colon Cancer)): 2.55E−06
Percent Growth (HCT-116 (Colon Cancer); Log10 Concentration −4.0): −49%
Percent Growth (HCT-116 (Colon Cancer); Log10 Concentration −5.0): −100%
Percent Growth (HCT-116 (Colon Cancer); Log10 Concentration −6.0): 68%
Percent Growth (HCT-116 (Colon Cancer); Log10 Concentration −8.0): 82%
GI50 (HT29 (Colon Cancer)): 1500 nM
TGI (HT29 (Colon Cancer)): 2.83E−06
Percent Growth (HT29 (Colon Cancer); Log10 Concentration −4.0): −99%
Percent Growth (HT29 (Colon Cancer); Log10 Concentration −5.0): −100%
Percent Growth (HT29 (Colon Cancer); Log10 Concentration −6.0): 82%
Percent Growth (HT29 (Colon Cancer); Log10 Concentration −7.0): 91%
Percent Growth (HT29 (Colon Cancer); Log10 Concentration −8.0): 95%
GI50 [3]: 1010 nM
TGI [3]: 2.26E−06
Percent Growth ([3]; Log10 Concentration −4.0): −28%
Percent Growth ([3]; Log10 Concentration −5.0): −92%
Percent Growth ([3]; Log10 Concentration −6.0): 50%
Percent Growth ([3]; Log10 Concentration −7.0): 82%
GI50 (M14 (Melanoma)): 1480 nM
TGI (M14 (Melanoma)): 2.80E−06
Percent Growth (M14 (Melanoma); Log10 Concentration −4.0): −33%
Percent Growth (M14 (Melanoma); Log10 Concentration −5.0): −100%
Percent Growth (M14 (Melanoma); Log10 Concentration −7.0): 82%
GI50 (MCF7 (Breast Cancer)): 1820 nM
TGI (MCF7 (Breast Cancer)): 3.44E−06
Percent Growth (MCF7 (Breast Cancer); Log10 Concentration −4.0): −49%
Percent Growth (MCF7 (Breast Cancer); Log10 Concentration −6.0): 97%
Percent Growth (MCF7 (Breast Cancer); Log10 Concentration −7.0): 82%
concentration range completely suppressing cell growth in a diverse range of tumor cell lines [4]: 3 to 5 µM
GI50 ([4]; read-out: mean GI50 among the sixty cell lines, two-day treatment): 1200 nM and 1300 nM
CC50 ([4]; read-out: mean LC50 among the sixty cell lines, two-day treatment): 8500 nM
mean TGI among the sixty cell lines ([4]; two-day treatment): 2900 nM
GI50 (HCT-15 (Colon Cancer); HCT-15): 1540 nM
TGI (HCT-15 (Colon Cancer); HCT-15): 2.87E−06
Percent Growth (HCT-15 (Colon Cancer); HCT-15, Log10 Concentration −4.0): −71%
Percent Growth (HCT-15 (Colon Cancer); HCT-15, Log10 Concentration −5.0): −100%
Percent Growth (HCT-15 (Colon Cancer); HCT-15, Log10 Concentration −8.0): 64%
